Reference: BindingDB's records for doi:10.1016/j.bmcl.2008.02.001 (Cephalon, 2008)

Test: Inhibition of VEGF-stimulated VEGFR2 autophosphorylation in HUVEC cells […] relative to control

- IC50: 4 nM
SMILES: CO/N=C(\C)c1ccc2c(c1)c1c3c(c4c(c1n2CC(C)C)CCc1nn(C)cc1-4)C(=O)NC3 [7-[(1E)-1-(methoxyimino)ethyl]-19-methyl-3-(2-methylpropyl)-3,13,19,20-tetraazahexacyclo[14.7.0.0^{2,10}.0^{4,9}.0^{11,15}.0^{17,21}]tricosa-1(16),2(10),4,6,8,11(15),17,20-octaen-14-one]
